Where a name gives a salt, the structure may show the parent alone.

The target of this test is CK2A1 (CK2α/β) (Homo sapiens, UniProt P68400). Nature of the test: CK2 kinase assay, CK2A1 (CK2α/β). The test is classed as biochemical. As to conditions: Table A; read-out: CK2A1 (CK2α/β) (IC50).
Sequence of CK2A1 (CK2α/β) (P68400 whole entry, species assumed): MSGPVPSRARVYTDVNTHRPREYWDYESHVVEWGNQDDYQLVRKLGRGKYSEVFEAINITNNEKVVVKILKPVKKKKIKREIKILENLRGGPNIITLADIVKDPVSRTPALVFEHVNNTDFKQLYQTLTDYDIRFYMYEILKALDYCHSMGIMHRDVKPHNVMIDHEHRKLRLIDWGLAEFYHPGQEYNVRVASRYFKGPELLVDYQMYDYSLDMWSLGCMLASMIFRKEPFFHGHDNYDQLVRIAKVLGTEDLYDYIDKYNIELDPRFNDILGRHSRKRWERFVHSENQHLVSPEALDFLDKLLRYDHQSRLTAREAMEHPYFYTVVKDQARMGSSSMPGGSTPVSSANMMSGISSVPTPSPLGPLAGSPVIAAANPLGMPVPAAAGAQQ
Sequence of CK2A1 (CK2α/β) (P67870 whole entry partner, species assumed): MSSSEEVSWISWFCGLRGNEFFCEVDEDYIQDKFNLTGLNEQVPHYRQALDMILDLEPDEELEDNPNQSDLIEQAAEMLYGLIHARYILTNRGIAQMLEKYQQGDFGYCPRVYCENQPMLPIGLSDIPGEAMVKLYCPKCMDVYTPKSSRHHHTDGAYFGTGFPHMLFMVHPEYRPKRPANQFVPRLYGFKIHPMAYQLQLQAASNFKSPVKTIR
As to `CC(=O)N1CC(N2CCN(c3cc(C(F)F)cc(Nc4nc(NC5CC5)c5ncc(C#N)n5n4)c3Cl)CC2)C1` [Example 266, 2-((3-(4-(1-acetyl-3-azetidinyl)-1-piperazinyl)-2-chloro-5-(difluoromethyl)phenyl)amino)-4-(cyclopropylamino)imidazo[2,1-f][1,2,4]triazine-7-carbonitrile], the IC50 worked out at 2.97 nM.
The value for `N#Cc1cnc2c(NC3CC3)nc(Nc3cc(C(F)F)cc(N4CCN(C5(CCO)COC5)CC4)c3Cl)nn12` [Example 270, 2-((2-chloro-5-(difluoromethyl)-3-(4-(3-(2-hydroxyethyl)-3-oxetanyl)-1-piperazinyl)phenyl)amino)-4-(cyclopropylamino)imidazo[2,1-f][1,2,4]triazine-7-carbonitrile] was 0.82 nM; that for `CC(O)C1(N2CCN(c3cc(C(F)F)cc(Nc4nc(NC5CC5)c5ncc(C#N)n5n4)c3Cl)CC2)COC1` (centres unmarked) [Example 271, 2-((2-chloro-5-(difluoromethyl)-3-(4-(3-(1-hydroxyethyl)-3-oxetanyl)-1-piperazinyl)phenyl)amino)-4-(cyclopropylamino)imidazo[2,1-f][1,2,4]triazine-7-carbonitrile] was 1.22 nM.
Under `N#Cc1cnc2c(NC3CC3)nc(Nc3cc(C(F)F)cc(N4CCN(C5CS(=O)(=O)C5)CC4)c3Cl)nn12` [Example 272, 2-((2-chloro-5-(difluoromethyl)-3-(4-(1,1-dioxidothietan-3-yl)piperazin-1-yl)phenyl)amino)-4-(cyclopropylamino)imidazo[2,1-f][1,2,4]triazine-7-carbonitrile] stands 0.58 nM; under `CC1(C(=O)N2CCN(c3cc(C(F)F)cc(Nc4nc(NC5CC5)c5ncc(C#N)n5n4)c3Cl)CC2)COC1` [Example 273, 2-((2-chloro-5-(difluoromethyl)-3-(4-((3-methyl-3-oxetanyl)carbonyl)-1-piperazinyl)phenyl)amino)-4-(cyclopropylamino)imidazo[2,1-f][1,2,4]triazine-7-carbonitrile], 2.11 nM; under `N#Cc1cnc2c(NC3CC3)nc(Nc3cc(C(F)F)cc(N4CCOCC4)c3Cl)nn12` [Example 275, 2-((2-chloro-5-(difluoromethyl)-3-(4-morpholinyl)phenyl)amino)-4-(cyclopropylamino)imidazo[2,1-f][1,2,4]triazine-7-carbonitrile], 3.36 nM.
The value for `N#Cc1cnc2c(NC3CC3)nc(Nc3cc(C(F)F)cc(N4CCC(C(CO)CO)CC4)c3Cl)nn12` [Example 277, 2-((2-chloro-5-(difluoromethyl)-3-(4-(2-hydroxy-1-(hydroxymethyl)ethyl)-1-piperidinyl)phenyl)amino)-4-(cyclopropylamino)imidazo[2,1-f][1,2,4]triazine-7-carbonitrile] was 2.56 nM; that for `CN1CCN(C2CN(c3cc(C(F)F)cc(Nc4nc(NC5CC5)c5ncc(C#N)n5n4)c3Cl)C2)CC1` [Example 278, 2-((2-chloro-5-(difluoromethyl)-3-(3-(4-methyl-1-piperazinyl)-1-azetidinyl)phenyl)amino)-4-(cyclopropylamino)imidazo[2,1-f][1,2,4]triazine-7-carbonitrile] was 0.86 nM.
On to `N#Cc1cnc2c(NC3CC3)nc(Nc3cc(C(F)F)cc(N4CC(N5CCOCC5)C4)c3Cl)nn12` [Example 279, 2-((2-chloro-5-(difluoromethyl)-3-(3-(4-morpholinyl)-1-azetidinyl)phenyl)amino)-4-(cyclopropylamino)imidazo[2,1-f][1,2,4]triazine-7-carbonitrile], for which the IC50 was found to be 0.76 nM.
The value for `N#Cc1cc(Nc2nc(NC3CC3)c3ncc(C#N)n3n2)c(Cl)c(N2CC[C@H](N)[C@H](F)C2)c1` [Example 283, 2-((3-((3R,4S)-4-amino-3-fluoropiperidin-1-yl)-2-chloro-5-cyanophenyl)amino)-4-(cyclopropylamino)imidazo[2,1-f][1,2,4]triazine-7-carbonitrile, HCl] was 0.79 nM; that for `COC(=O)NC1CCN(c2cc(C#N)cc(Nc3nc(NC4CC4)c4ncc(C#N)n4n3)c2Cl)CC1(C)C` (centres unmarked) [Example 286, methyl (1-(2-chloro-5-cyano-3-((7-cyano-4-(cyclopropylamino)imidazo[2,1-f][1,2,4]triazin-2-yl)amino)phenyl)-3,3-dimethyl-4-piperidinyl)carbamate] was 4.4 nM.
The value for `COC(=O)N[C@H]1CN(c2cc(C#N)cc(Nc3nc(NC4CC4)c4ncc(C#N)n4n3)c2Cl)C[C@H]1CF` [Example 287, methyl ((3R,4R)-1-(2-chloro-5-cyano-3-((7-cyano-4-(cyclopropylamino)imidazo[2,1-f][1,2,4]triazin-2-yl)amino)phenyl)-4-(fluoromethyl)-3-pyrrolidinyl)carbamate] was 1.17 nM; that for `COC(=O)N[C@H]1CN(c2cc(C#N)cc(Nc3nc(NC4CC4)c4ncc(C#N)n4n3)c2Cl)C[C@@H]1OC` [Example 288, methyl ((3S,4S)-1-(2-chloro-5-cyano-3-((7-cyano-4-(cyclopropylamino)imidazo[2,1-f][1,2,4]triazin-2-yl)amino)phenyl)-4-methoxy-3-pyrrolidinyl)carbamate] was 0.91 nM; that for `CO[C@@H]1CN(c2cc(C#N)cc(Nc3nc(NC4CC4)c4ncc(C#N)n4n3)c2Cl)C[C@@H]1NS(C)(=O)=O` [Example 289, N-((3S,4R)-1-(2-chloro-5-cyano-3-((7-cyano-4-(cyclopropylamino)imidazo[2,1-f][1,2,4]triazin-2-yl)amino)phenyl)-4-methoxy-3-pyrrolidinyl)methanesulfonamide] was 0.59 nM.
As for `CO[C@@H]1CN(c2cc(C#N)cc(Nc3nc(NC4CC4)c4ncc(C#N)n4n3)c2Cl)C[C@@H]1NC(=O)NC1COC1` [Example 290, 1-((3S,4R)-1-(2-chloro-5-cyano-3-((7-cyano-4-(cyclopropylamino)imidazo[2,1-f][1,2,4]triazin-2-yl)amino)phenyl)-4-methoxy-3-pyrrolidinyl)-3-(3-oxetanyl)urea], the IC50 was 0.47 nM.
Under `CO[C@@H]1CN(c2cc(C#N)cc(Nc3nc(NC4CC4)c4ncc(C#N)n4n3)c2Cl)C[C@@H]1NC(=O)OC1COC1` [Example 291, 3-oxetanyl ((3S,4R)-1-(2-chloro-5-cyano-3-((7-cyano-4-(cyclopropylamino)imidazo[2,1-f][1,2,4]triazin-2-yl)amino)phenyl)-4-methoxy-3-pyrrolidinyl)carbamate] stands 0.59 nM; under `COC(=O)N[C@@H]1CN(c2cc(C#N)cc(Nc3nc(NC4CC4)c4ncc(C#N)n4n3)c2Cl)C[C@@H]1C` [Example 293, methyl ((3S,4S)-1-(2-chloro-5-cyano-3-((7-cyano-4-(cyclopropylamino)imidazo[2,1-f][1,2,4]triazin-2-yl)amino)phenyl)-4-methyl-3-pyrrolidinyl)carbamate], 1.89 nM.
Turning to `COC(=O)N[C@H]1C[C@@H](O)CN(c2cc(C#N)cc(Nc3nc(NC4CC4)c4ncc(C#N)n4n3)c2Cl)C1` [Example 295, methyl ((3S,5R)-1-(2-chloro-5-cyano-3-((7-cyano-4-(cyclopropylamino)imidazo[2,1-f][1,2,4]triazin-2-yl)amino)phenyl)-5-hydroxy-3-piperidinyl)carbamate], the IC50 was 1.21 nM.
The value for `CC1(C)CN2CCN(c3cc(C#N)cc(Nc4nc(NC5CC5)c5ncc(C#N)n5n4)c3Cl)C[C@H]2CO1` [Example 303, (S)-2-((2-chloro-5-cyano-3-(3,3-dimethylhexahydropyrazino[2,1-c][1,4]oxazin-8(1H)-yl)phenyl)amino)-4-(cyclopropylamino)imidazo[2,1-f][1,2,4]triazine-7-carbonitrile, HCl] was 0.69 nM; that for `CC1(N2CCOCC2)CCN(c2cc(C#N)cc(Nc3nc(NC4CC4)c4ncc(C#N)n4n3)c2Cl)CC1` [Example 304, 2-((2-chloro-5-cyano-3-(4-methyl-4-morpholinopiperidin-1-yl)phenyl)amino)-4-(cyclopropylamino)imidazo[2,1-f][1,2,4]triazine-7-carbonitrile, HCl] was 0.8 nM.
Take `N#Cc1cc(Nc2nc(NC3CC3)c3ncc(C#N)n3n2)c(Cl)c(N2C[C@@H](O)[C@H](N3CCOCC3)C2)c1` [Example 307, 2-((2-chloro-5-cyano-3-((3R,4R)-3-hydroxy-4-(4-morpholinyl)-1-pyrrolidinyl)phenyl)amino)-4-(cyclopropylamino)imidazo[2,1-f][1,2,4]triazine-7-carbonitrile]: the IC50 amounted to 0.88 nM.
In the case of `N#Cc1cc(Nc2nc(NC3CC3)c3ncc(C#N)n3n2)c(Cl)c(N2CCN3CCOC[C@H]3C2)c1` [Example 308, (R)-2-((2-chloro-5-cyano-3-(hexahydropyrazino[2,1-c][1,4]oxazin-8(1H)-yl)phenyl)amino)-4-(cyclopropylamino)imidazo[2,1-f][1,2,4]triazine-7-carbonitrile], the IC50 was 1.67 nM.
The value for `N#Cc1cc(Nc2nc(NC3CC3)c3ncc(C#N)n3n2)c(Cl)c(N2CCN3CCOC[C@@H]3C2)c1` [Example 309, (S)-2-((2-chloro-5-cyano-3-(hexahydropyrazino[2,1-c][1,4]oxazin-8(1H)-yl)phenyl)amino)-4-(cyclopropylamino)imidazo[2,1-f][1,2,4]triazine-7-carbonitrile] was 1.31 nM; that for `CC1(N2CCN(c3cc(C#N)cc(Nc4nc(NC5CC5)c5ncc(C#N)n5n4)c3Cl)CC2)COC1` [Example 311, 2-((2-chloro-5-cyano-3-(4-(3-methyl-3-oxetanyl)-1-piperazinyl)phenyl)amino)-4-(cyclopropylamino)imidazo[2,1-f][1,2,4]triazine-7-carbonitrile] was 0.96 nM.
Under `CN(C)C(=O)C1CN(c2cc(C#N)cc(Nc3nc(NC4CC4)c4ncc(C#N)n4n3)c2Cl)CCN1CC(C)(C)O` (centres unmarked) [Example 317, 4-(2-chloro-5-cyano-3-((7-cyano-4-(cyclopropylamino)imidazo [2,1-f][1,2,4]triazin-2-yl)amino)phenyl)-1-(2-hydroxy-2-methylpropyl)-N,N-dimethylpiperazine-2-carboxamide] stands 0.99 nM; under `N#Cc1cc(Nc2nc(NC3CC3)c3ncc(C#N)n3n2)c(Cl)c(C2CCN(C3CNC3)CC2)c1` [Example 318, 2-((3-(1-(azetidin-3-yl)piperidin-4-yl)-2-chloro-5-cyanophenyl)amino)-4-(cyclopropylamino)imidazo[2,1-f][1,2,4]triazine-7-carbonitrile], 0.78 nM.
